The NIST ThermoML archive (doi:10.1016/j.jct.2007.11.009)

Experiment: xn = mol fraction of the nth substance listed
Details: Liquid, Vibrating tube method

CCCCCCCC [octane] + c1ccccc1
mass density [kg/m3]
Details | x1 = 0.1097 | x1 = 0.2036 | x1 = 0.2984 | x1 = 0.4069 | x1 = 0.5027 | x1 = 0.5904 | x1 = 0.6989 | x1 = 0.7964 | x1 = 0.904 | x1 = 1
298.15 K, 100 kPa | 838.3 | 813.5 | 792.3 | 771.6 | 755.7 | 743 | 729.1 | 718.2 | 707.3 | 698.7
298.15 K, 2130 kPa | 839.9 | 815.2 | 794 | 773.3 | 757.4 | 744.8 | 730.9 | 719.9 | 709.1 | 700.4
298.15 K, 4150 kPa | 841.6 | 816.9 | 795.7 | 775.1 | 759.2 | 746.5 | 732.6 | 721.7 | 710.8 | 702.2
298.15 K, 6180 kPa | 843.3 | 818.6 | 797.4 | 776.8 | 760.9 | 748.2 | 734.3 | 723.4 | 712.4 | 703.8
298.15 K, 8210 kPa | 844.9 | 820.2 | 799.1 | 778.5 | 762.5 | 749.9 | 735.9 | 725 | 714.1 | 705.4
298.15 K, 10230 kPa | 846.5 | 821.8 | 800.7 | 780.1 | 764.2 | 751.5 | 737.6 | 726.7 | 715.7 | 707
298.15 K, 11250 kPa | 847.3 | 822.7 | 801.5 | 780.9 | 765 | 752.3 | 738.4 | 727.5 | 716.5 | 707.8
298.15 K, 12260 kPa | 848.1 | 823.5 | 802.4 | 781.7 | 765.8 | 753.2 | 739.2 | 728.3 | 717.3 | 708.6
298.15 K, 14290 kPa | 849.7 | 825.1 | 803.9 | 783.4 | 767.4 | 754.7 | 740.8 | 729.8 | 718.8 | 710.1
298.15 K, 16310 kPa | 851.2 | 826.6 | 805.5 | 784.9 | 769 | 756.3 | 742.4 | 731.4 | 720.4 | 711.7
298.15 K, 18340 kPa | 852.7 | 828.1 | 807 | 786.4 | 770.5 | 757.8 | 743.8 | 732.9 | 721.9 | 713.1
298.15 K, 20370 kPa | 854.2 | 829.6 | 808.5 | 788 | 772 | 759.3 | 745.3 | 734.4 | 723.3 | 714.6
298.15 K, 22390 kPa | 855.7 | 831.1 | 810 | 789.4 | 773.4 | 760.8 | 746.8 | 735.8 | 724.8 | 715.9
298.15 K, 24420 kPa | 857.1 | 832.6 | 811.5 | 790.8 | 774.9 | 762.2 | 748.2 | 737.2 | 726.2 | 717.4
298.15 K, 26450 kPa | 858.5 | 834 | 812.9 | 792.3 | 776.3 | 763.6 | 749.6 | 738.7 | 727.5 | 718.8
298.15 K, 28470 kPa | 859.9 | 835.4 | 814.3 | 793.7 | 777.7 | 765 | 751 | 740 | 728.9 | 720.1
298.15 K, 29490 kPa | 860.6 | 836.1 | 815 | 794.3 | 778.4 | 765.7 | 751.7 | 740.7 | 729.6 | 720.8
298.15 K, 30500 kPa | 861.3 | 836.8 | 815.7 | 795 | 779.1 | 766.4 | 752.4 | 741.4 | 730.2 | 721.4
298.15 K, 32530 kPa | 862.6 | 838.1 | 817 | 796.4 | 780.4 | 767.7 | 753.7 | 742.7 | 731.5 | 722.7
298.15 K, 34550 kPa | 864 | 839.5 | 818.4 | 797.8 | 781.8 | 769.1 | 755 | 744.1 | 732.9 | 724
298.15 K, 36580 kPa | 865.3 | 840.8 | 819.7 | 799.1 | 783.1 | 770.4 | 756.4 | 745.4 | 734.2 | 725.3
298.15 K, 38600 kPa | 866.6 | 842.1 | 821 | 800.4 | 784.4 | 771.7 | 757.6 | 746.5 | 735.4 | 726.5
298.15 K, 39620 kPa | 867.3 | 842.7 | 821.6 | 801 | 785 | 772.3 | 758.2 | 747.1 | 736 | 727.1
308.15 K, 100 kPa | 828.4 | 803.9 | 783 | 762.6 | 747 | 734.5 | 720.8 | 709.9 | 699.3 | 690.8
308.15 K, 2130 kPa | 830.2 | 805.7 | 784.9 | 764.5 | 748.8 | 736.4 | 722.7 | 711.8 | 701.1 | 692.6
308.15 K, 4150 kPa | 832 | 807.5 | 786.7 | 766.3 | 750.7 | 738.2 | 724.5 | 713.7 | 703 | 694.4
308.15 K, 6180 kPa | 833.7 | 809.3 | 788.5 | 768.2 | 752.5 | 740 | 726.3 | 715.5 | 704.8 | 696.2
308.15 K, 8210 kPa | 835.5 | 811.1 | 790.3 | 770 | 754.3 | 741.8 | 728.1 | 717.2 | 706.5 | 698
308.15 K, 10230 kPa | 837.2 | 812.8 | 792 | 771.7 | 756.1 | 743.6 | 729.9 | 719 | 708.3 | 699.7
308.15 K, 11250 kPa | 838 | 813.7 | 792.9 | 772.6 | 756.9 | 744.4 | 730.7 | 719.8 | 709.1 | 700.5
308.15 K, 12260 kPa | 838.8 | 814.5 | 793.7 | 773.4 | 757.8 | 745.3 | 731.6 | 720.7 | 709.9 | 701.3
308.15 K, 14290 kPa | 840.5 | 816.2 | 795.4 | 775.1 | 759.5 | 747 | 733.2 | 722.3 | 711.6 | 703
308.15 K, 16310 kPa | 842.1 | 817.8 | 797 | 776.7 | 761.1 | 748.6 | 734.8 | 723.9 | 713.1 | 704.5
308.15 K, 18340 kPa | 843.7 | 819.5 | 798.7 | 778.4 | 762.7 | 750.2 | 736.5 | 725.5 | 714.8 | 706.1
308.15 K, 20370 kPa | 845.3 | 821 | 800.3 | 780 | 764.3 | 751.8 | 738 | 727.1 | 716.3 | 707.6
308.15 K, 22390 kPa | 846.8 | 822.6 | 801.8 | 781.5 | 765.8 | 753.3 | 739.6 | 728.6 | 717.8 | 709.1
308.15 K, 24420 kPa | 848.3 | 824.1 | 803.4 | 783.1 | 767.4 | 754.8 | 741.1 | 730.1 | 719.3 | 710.6
308.15 K, 26450 kPa | 849.8 | 825.6 | 804.9 | 784.6 | 768.9 | 756.3 | 742.6 | 731.6 | 720.8 | 712
308.15 K, 28470 kPa | 851.3 | 827.1 | 806.4 | 786 | 770.4 | 757.8 | 744 | 733 | 722.2 | 713.4
308.15 K, 29490 kPa | 852 | 827.8 | 807.1 | 786.8 | 771.1 | 758.5 | 744.8 | 733.7 | 722.9 | 714.1
308.15 K, 30500 kPa | 852.7 | 828.6 | 807.8 | 787.5 | 771.8 | 759.2 | 745.5 | 734.4 | 723.6 | 714.8
308.15 K, 32530 kPa | 854.2 | 830 | 809.2 | 788.9 | 773.2 | 760.7 | 746.9 | 735.8 | 725 | 716.2
308.15 K, 34550 kPa | 855.5 | 831.4 | 810.6 | 790.3 | 774.6 | 762 | 748.3 | 737.2 | 726.3 | 717.5
308.15 K, 36580 kPa | 856.9 | 832.8 | 812 | 791.7 | 776 | 763.4 | 749.6 | 738.5 | 727.7 | 718.8
308.15 K, 38600 kPa | 858.3 | 834.2 | 813.4 | 793.1 | 777.3 | 764.7 | 750.9 | 739.9 | 729 | 720.2
308.15 K, 39620 kPa | 859 | 834.9 | 814.1 | 793.7 | 778 | 765.4 | 751.6 | 740.6 | 729.7 | 720.8
